A word on the EC50: it is the concentration at which the effect is half-maximal. Higher therefore signals a less potent agent.

Each structure is given as a SMILES string. Bounds are passed on as bounds.

The test system of one data set is ICR(CD-1) mice. The data set is described as follows: Reversal of Phencyclidine (PCP)-Induced Hyperlocomotor Activity in Mice. Format: in vivo, mouse. The conditions noted are these: i.p. From the text:
This assay for Reversal of Phencyclidine (PCP)-Induced Hyperlocomotor Activity in Mice is run substantially as the Reversal of Phencyclidine (PCP)-Induced Hyperlocomotor Activity in Rats assay provided above, using mice instead of rats and with the changes noted below.
Motor activity is monitored by placing individual male, ICR(CD-1), (Harlan, Indianapolis, Ind.) mice in transparent, plastic shoe-box cages of the dimensions 45×25×20 cm, with 0.5 cm depth of wood chips as bedding, and plastic lid on top of the cage. Motor monitors (Kinder Scientific) consist of a rectangular rack of 12 photobeams arranged in an 8×4 formation, (or a high density grouping of 22 in a 15×7 pattern) at a height of 2.5 cm. The shoe box cage is placed inside of these racks, with the racks on a 3 foot high tabletop in an isolated room. A compound of the present invention is dosed (intraperitoneal route, non-prodrug) usually within a range of 0.3-30 mg/kg; though higher doses may be used, 30 minutes prior to a 7.5 mg/kg challenge dose of phencyclidine (PCP). On the test day, mice are placed in the test cage and allowed to acclimate for 45 minutes prior to PCP challenge; mice are monitored for an additional 60 minutes following PCP administration.
Power analyses have determined that 7-8 mice per group are needed to have appropriate statistical power for detecting treatment differences (power=0.8).

A further data set has as its target T1, human mGlu2 receptor (Homo sapiens, UniProt Q14416).
T1 construct: expressed in transfected cells; co-transfected with rat EAAT1 and Galpha15
The experiment in a line: Human mGlu2 Agonist FLIPR Assay. Format: cell-based. The conditions noted are these: hmGlu2 FLIPR assay, AV-12 cells, relative EC50. From the text: AV-12 cell lines, derived from Syrian Hamster fibroblasts and stably expressing the human mGlu2 receptor and co-transfected with the rat glutamate transporter EAAT 1 (Excitatory Amino Acid Transporter 1) and the Gα15 subunit, are used for these studies. The expression of Gα15 allows Gi-coupled receptors to signal through the phospholipase C pathway, resulting in the ability to measure receptor activation by a fluorometric calcium response assay. […]
Intracellular calcium levels are monitored before and after the addition of compounds using a Fluorometric Imaging Plate Reader (FLIPR, Molecular Devices). […] Results are analyzed using Prism v4.03 (GraphPad Software). […] After taking an initial 5-sec fluorescent read on the FLIPR instrument, a compound of the present invention is added to the cell plate (50 μL per well). […] The compound effect is measured as maximal minus minimal peak heights in relative fluorescent units (RFUs) corrected for basal fluorescence measured in the absence of glutamate. […] Agonist effects are quantified as percent stimulation induced by compound alone relative to the maximal glutamate response. All data are calculated as relative EC50 values using a four-parameter logistic curve fitting program (ActivityBase v5.3.1.22).

For data set [1] the following is noted: both, human, pH 7.4. Here is the method:
Liver S9 fractions are obtained from Xenotech LLC (Lenexa, Mo.). The lot is from a pool of two donors. The liver S9 fraction is prepared and diluted using a homogenization buffer consisting of 50 mM Tris, pH 7.4 at 4° C. and 150 mM potassium chloride without EDTA. Prodrug compounds are incubated in the liver homogenate for 2 hours at 37° C., after which the concentration of compound is determined by LC/MS/MS. Hydrolysis of Clopidogrel to Clopidogrel Carboxylic Acid is utilized as an assay positive control.
A mobile phase gradient is utilized starting mobile phase ratio A/B of 99.9/0.1 and finishing at 1/99.

T1 sequence (Q14416 19-872): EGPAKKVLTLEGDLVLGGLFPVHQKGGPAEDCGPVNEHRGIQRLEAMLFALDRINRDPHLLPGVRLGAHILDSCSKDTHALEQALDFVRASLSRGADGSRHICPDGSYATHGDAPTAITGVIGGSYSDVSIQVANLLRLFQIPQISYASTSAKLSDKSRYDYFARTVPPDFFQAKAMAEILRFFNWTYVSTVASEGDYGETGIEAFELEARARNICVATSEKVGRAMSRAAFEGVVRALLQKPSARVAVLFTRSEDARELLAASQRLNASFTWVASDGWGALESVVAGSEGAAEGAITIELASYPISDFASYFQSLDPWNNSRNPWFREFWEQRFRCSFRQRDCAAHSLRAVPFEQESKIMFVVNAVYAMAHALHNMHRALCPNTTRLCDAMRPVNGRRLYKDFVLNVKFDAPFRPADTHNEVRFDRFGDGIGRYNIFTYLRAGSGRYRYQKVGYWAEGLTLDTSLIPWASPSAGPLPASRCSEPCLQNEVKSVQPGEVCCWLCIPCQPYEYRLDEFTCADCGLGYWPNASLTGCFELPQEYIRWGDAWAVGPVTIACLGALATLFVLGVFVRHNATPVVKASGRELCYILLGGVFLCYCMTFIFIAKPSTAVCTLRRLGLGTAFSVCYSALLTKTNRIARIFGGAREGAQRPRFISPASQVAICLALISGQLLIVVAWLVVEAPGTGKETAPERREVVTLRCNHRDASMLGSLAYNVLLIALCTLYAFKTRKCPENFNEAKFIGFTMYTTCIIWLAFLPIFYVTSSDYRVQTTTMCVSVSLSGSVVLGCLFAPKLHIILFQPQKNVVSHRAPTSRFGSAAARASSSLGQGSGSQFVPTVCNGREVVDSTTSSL

For `N[C@]1(C(=O)O)C[C@H](Sc2ccccc2)[C@@H]2[C@@H](C(=O)O)[C@@H]21` (racemic) [1SR,2RS,4SR,5SR,6SR-2-amino-4-(phenylthio)-bicyclo[3.1.0]hexane-2,6-dicarboxylic acid], the “inhibition of PCP evoked ambulations” value worked out at 5±10% in the data set with ICR(CD-1) mice (multiple dose experiment, 10 mg/kg dose); 19±8% in the data set on ICR(CD-1) mice (multiple dose experiment, 100 mg/kg dose); 18±11% with ICR(CD-1) mice (single dose experiment of 10 mg/kg). The molecule further had an EC50 on human mGlu2 receptor greater than 25 µM.
On to `COC(=O)[C@H](c1ccccc1Cl)N1CCc2sccc2C1` [Clopidogrel], for which the “Hydrolysis of Clopidogrel to Clopidogrel Carboxylic Acid” value in data set [1] is 73.0%.

These data come from patent publication US8318184B2, “MGLU2 agonists” (Eli Lilly and Company, priority 2009, dated 2012).
